Experimental data as given in PubChem BioAssay AID248 (DTP/NCI, 2004).
Several values for one entry are separate records, joined by “and”; a condition that tells them apart may be missing. Equal values may be shown once. Toxic doses and inconclusive results are not listed.

System: L1210 leukemia ip in BDF1 mice, survival T/C
Assay: NCI In Vivo Anticancer Drug Screen. Data for tumor model L1210 Leukemia (intraperitoneal) in B6D2F1 (BDF1) mice
Conditions: endpoint: mean survival time, higher = longer survival
Method in brief: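 Ratio derived from survival: compound-dosed mice over vehicle-dosed mice, all bearing a transplantable tumor.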

[1] = dose: 100.0 mg/kg/injection, schedule: Q04DX003 (ip), vehicle: saline with Tween-80
[2] = dose: 200.0 mg/kg/injection, schedule: Q04DX003 (ip), vehicle: saline with Tween-80
[3] = dose: 150.0 mg/kg/injection, schedule: Q01DX001 (ip), vehicle: saline
[4] = dose: 400.0 mg/kg/injection, schedule: Q04DX003 (ip), vehicle: saline with Tween-80
[5] = dose: 100.0 mg/kg/injection, schedule: Q01DX009 (ip), vehicle: saline with Tween-80
[6] = dose: 200.0 mg/kg/injection, schedule: Q01DX009 (ip), vehicle: saline with Tween-80
[7] = dose: 50.0 mg/kg/injection, schedule: Q01DX001 (ip), vehicle: saline
[8] = dose: 100.0 mg/kg/injection, schedule: Q01DX001 (ip), vehicle: saline
[9] = dose: 200.0 mg/kg/injection, schedule: Q01DX001 (ip), vehicle: saline
[10] = dose: 400.0 mg/kg/injection, schedule: Q01DX009 (ip), vehicle: saline with Tween-80

SMILES: CCC1COC(Nc2cccc3c2CCCC3)=N1 (stereo not drawn)
- T/C (dose: 50.0 mg/kg/injection, schedule: Q04DX003 (ip), vehicle: saline with Tween-80): 92 % of control
- T/C [1]: 92 % of control
- T/C [2]: 92 % of control

SMILES: C/C=C(\C)C1(CC)C(=O)NC(=O)N(C)C1=O (stereo not drawn)
- T/C (dose: 75.0 mg/kg/injection, schedule: Q01DX001 (ip), vehicle: saline): 93 % of control
- T/C [3]: 97 % of control

SMILES: Cc1cc(NS(=O)(=O)c2ccc(N)cc2)sn1
- T/C (dose: 100.0 mg/kg/injection, schedule: Q04DX003 (ip), vehicle: saline): 87 % of control
- T/C (dose: 200.0 mg/kg/injection, schedule: Q04DX003 (ip), vehicle: saline): 92 % of control
- T/C (dose: 400.0 mg/kg/injection, schedule: Q04DX003 (ip), vehicle: saline): 97 % of control

SMILES: CCCCCOC(=O)C1(C)OC1c1ccccc1 (stereo not drawn)
- T/C (dose: 100.0 mg/kg/injection, schedule: Q04DX002 (ip), vehicle: saline): 108 % of control
- T/C (dose: 200.0 mg/kg/injection, schedule: Q04DX002 (ip), vehicle: saline): 93 % of control
- T/C (dose: 400.0 mg/kg/injection, schedule: Q04DX002 (ip), vehicle: saline): 93 % of control

SMILES: CCCCCCCCOP(=O)(N1CC1)N1CC1
- T/C (dose: 1.0 mg/kg/injection, schedule: Q01DX015 (ip), vehicle: saline): 94 % of control
- T/C (dose: 2.0 mg/kg/injection, schedule: Q01DX015 (ip), vehicle: saline): 95 % of control
- T/C (dose: 4.0 mg/kg/injection, schedule: Q01DX015 (ip), vehicle: saline): 97 % of control
- T/C (dose: 8.0 mg/kg/injection, schedule: Q01DX001 (ip), vehicle: saline): 119 % of control
- T/C (dose: 8.2 mg/kg/injection, schedule: Q01DX015 (ip), vehicle: saline): 163 % of control
- T/C (dose: 10.5 mg/kg/injection, schedule: Q01DX015 (ip), vehicle: saline): 165 % of control and 166 % of control
- T/C (dose: 12.4 mg/kg/injection, schedule: Q01DX015 (ip), vehicle: saline): 204 % of control
- T/C (dose: 16.0 mg/kg/injection, schedule: Q01DX015 (ip), vehicle: saline): 209 % of control
- T/C (dose: 18.0 mg/kg/injection, schedule: Q01DX015 (ip), vehicle: saline): 235 % of control
- T/C (dose: 18.6 mg/kg/injection, schedule: Q01DX015 (ip), vehicle: saline): 214 % of control
- T/C (dose: 28.0 mg/kg/injection, schedule: Q01DX001 (ip), vehicle: saline): 153 % of control
- T/C (dose: 33.5 mg/kg/injection, schedule: Q01DX015 (ip), vehicle: saline): 207 % of control
- T/C (dose: 44.4 mg/kg/injection, schedule: Q01DX001 (ip), vehicle: saline): 150 % of control
- T/C (dose: 50.0 mg/kg/injection, schedule: Q01DX015 (ip), vehicle: saline): 92 % of control
- T/C (dose: 66.7 mg/kg/injection, schedule: Q01DX001 (ip), vehicle: saline): 157 % of control and 170 % of control
- T/C [3]: 213 % of control

SMILES: CC1(c2ccccc2)CCc2ccccc21 (stereo not drawn)
- T/C [1]: 100 % of control
- T/C [2]: 98 % of control
- T/C [4]: 98 % of control

SMILES: O=C(N/N=C\c1ccc(Cl)cc1Cl)c1ccco1
- T/C (dose: 100.0 mg/kg/injection, schedule: Q01DX001 (ip), vehicle: other): 90 % of control
- T/C (dose: 200.0 mg/kg/injection, schedule: Q01DX001 (ip), vehicle: other): 96 % of control
- T/C (dose: 400.0 mg/kg/injection, schedule: Q01DX001 (ip), vehicle: other): 93 % of control

SMILES: Cc1nc(N)[nH]c(=O)c1CCCNc1ccc(CCC(=O)CCl)cc1
- T/C (dose: 50.0 mg/kg/injection, schedule: Q01DX Z (ip), vehicle: carboxymethylcellulose (CMC)): 94 % of control
- T/C (dose: 100.0 mg/kg/injection, schedule: Q01DX Z (ip), vehicle: carboxymethylcellulose (CMC)): 94 % of control
- T/C (dose: 200.0 mg/kg/injection, schedule: Q01DX Z (ip), vehicle: carboxymethylcellulose (CMC)): 86 % of control

SMILES: CCC(=O)c1c(C)[nH]c(C)c1C
- T/C (dose: 100.0 mg/kg/injection, schedule: Q01DX001 (ip), vehicle: Klucel (hydroxypropylcellulose) (HPC)): 96 % of control
- T/C (dose: 200.0 mg/kg/injection, schedule: Q01DX001 (ip), vehicle: Klucel (hydroxypropylcellulose) (HPC)): 95 % of control
- T/C (dose: 400.0 mg/kg/injection, schedule: Q01DX001 (ip), vehicle: Klucel (hydroxypropylcellulose) (HPC)): 96 % of control

SMILES: CC(=O)OCc1c(C)[nH]c2ccc(N(C)C)cc2c1=O
- T/C [5]: 102 % of control
- T/C [6]: 112 % of control

SMILES: CCOCC(=O)CC1CCCC1
- T/C (dose: 50.0 mg/kg/injection, schedule: Q01DX009 (ip), vehicle: saline with Tween-80): 103 % of control
- T/C [5]: 100 % of control
- T/C [6]: 95 % of control

SMILES: Cc1cc(C)c(C[N+](C)(C)C)c(C)c1
- T/C [7]: 108 % of control
- T/C [8]: 104 % of control

SMILES: CCOC(=N)CC(=N)OCC
- T/C (dose: 100.0 mg/kg/injection, schedule: Q01DX009 (ip), vehicle: water): 96 % of control
- T/C (dose: 100.0 mg/kg/injection, schedule: Q04DX003 (ip), vehicle: water): 97 % of control
- T/C (dose: 200.0 mg/kg/injection, schedule: Q01DX009 (ip), vehicle: water): 101 % of control
- T/C (dose: 200.0 mg/kg/injection, schedule: Q04DX003 (ip), vehicle: water): 93 % of control
- T/C (dose: 400.0 mg/kg/injection, schedule: Q01DX009 (ip), vehicle: water): 97 % of control
- T/C (dose: 400.0 mg/kg/injection, schedule: Q04DX003 (ip), vehicle: water): 97 % of control

SMILES: COC(=O)/C(C)=C/CC(C)C(=O)OC (stereo not drawn)
- T/C [7]: 102 % of control
- T/C [8]: 96 % of control
- T/C [9]: 105 % of control

SMILES: c1ccc2c(c1)ccc1ncccc12
- T/C (dose: 100.0 mg/kg/injection, schedule: Q04DX003 (ip), vehicle: Klucel (hydroxypropylcellulose) (HPC)): 103 % of control
- T/C (dose: 200.0 mg/kg/injection, schedule: Q04DX003 (ip), vehicle: Klucel (hydroxypropylcellulose) (HPC)): 102 % of control
- T/C (dose: 400.0 mg/kg/injection, schedule: Q04DX003 (ip), vehicle: Klucel (hydroxypropylcellulose) (HPC)): 101 % of control

SMILES: CCOC(=O)/C(C(=O)c1ccccc1)=C(\OC(=O)c1ccccc1)c1ccccc1
- T/C (dose: 50.0 mg/kg/injection, schedule: Q01DX001 (ip), vehicle: carboxymethylcellulose (CMC)): 96 % of control
- T/C (dose: 100.0 mg/kg/injection, schedule: Q01DX001 (ip), vehicle: carboxymethylcellulose (CMC)): 102 % of control
- T/C (dose: 200.0 mg/kg/injection, schedule: Q01DX001 (ip), vehicle: carboxymethylcellulose (CMC)): 91 % of control

SMILES: CCOC(C(=O)N(C)CCN(C)CCc1ccccc1)(c1ccccc1)c1ccccc1
- T/C [8]: 105 % of control
- T/C [9]: 94 % of control

SMILES: O=C1OCC/C1=C/OCCO/C=C1\CCOC1=O
- T/C (dose: 100.0 mg/kg/injection, schedule: Q04DX002 (ip), vehicle: Klucel (hydroxypropylcellulose) (HPC)): 94 % of control
- T/C (dose: 200.0 mg/kg/injection, schedule: Q04DX002 (ip), vehicle: Klucel (hydroxypropylcellulose) (HPC)): 90 % of control

SMILES: NS(=O)(=O)c1ccc(NC(=O)Nc2ccccc2C(F)(F)F)cc1
- T/C (dose: 100.0 mg/kg/injection, schedule: Q01DX009 (ip), vehicle: Klucel (hydroxypropylcellulose) (HPC)): 100 % of control
- T/C (dose: 200.0 mg/kg/injection, schedule: Q01DX009 (ip), vehicle: Klucel (hydroxypropylcellulose) (HPC)): 89 % of control
- T/C (dose: 400.0 mg/kg/injection, schedule: Q01DX009 (ip), vehicle: Klucel (hydroxypropylcellulose) (HPC)): 93 % of control

SMILES: CC(=O)Oc1cccc(OC(=O)Nc2cccc(Cl)c2C)c1
- T/C (dose: 100.0 mg/kg/injection, schedule: Q01DX001 (ip), vehicle: saline with Tween-80): 93 % of control
- T/C [5]: 104 % of control and 107 % of control
- T/C (dose: 100.0 mg/kg/injection, schedule: Q04DX002 (ip), vehicle: saline with Tween-80): 94 % of control and 104 % of control
- T/C [1]: 88 % of control
- T/C (dose: 200.0 mg/kg/injection, schedule: Q01DX001 (ip), vehicle: saline with Tween-80): 100 % of control
- T/C [6]: 96 % of control and 90 % of control
- T/C (dose: 200.0 mg/kg/injection, schedule: Q04DX002 (ip), vehicle: saline with Tween-80): 94 % of control and 101 % of control
- T/C [2]: 86 % of control
- T/C (dose: 400.0 mg/kg/injection, schedule: Q01DX001 (ip), vehicle: saline with Tween-80): 93 % of control
- T/C [10]: 93 % of control and 100 % of control
- T/C (dose: 400.0 mg/kg/injection, schedule: Q04DX002 (ip), vehicle: saline with Tween-80): 97 % of control and 104 % of control
- T/C [4]: 89 % of control

SMILES: CC1=CCCC1
- T/C (dose: 100.0 mg/kg/injection, schedule: Q01DX009 (ip), vehicle: saline): 101 % of control
- T/C (dose: 200.0 mg/kg/injection, schedule: Q01DX009 (ip), vehicle: saline): 95 % of control
- T/C (dose: 400.0 mg/kg/injection, schedule: Q01DX009 (ip), vehicle: saline): 95 % of control

SMILES: CCCCCCCCCCCC(=O)O
- T/C [5]: 92 % of control
- T/C [6]: 106 % of control
- T/C [10]: 96 % of control

SMILES: CC(C)(Cc1ccccc1)C(C(=O)O)C(=O)O
- T/C (dose: 100.0 mg/kg/injection, schedule: Q01DX001 (ip), vehicle: gum acacia): 91 % of control
- T/C (dose: 200.0 mg/kg/injection, schedule: Q01DX001 (ip), vehicle: gum acacia): 95 % of control
